Laboratory results published in US12528802B2, “Heterocyclic compound” (Takeda Pharmaceutical Company Limited, priority 2019, dated 2026).

What follows are compounds tested against T1, glucosylceramide synthase (Homo sapiens, UniProt Q16739) (assay: Glucosylceramide synthase (GCS) enzyme assay, microsome fraction, C8 glucosylceramide quantified by Rapidfire MS/MS). Settings: test compound 10 μM; 1.7 μM UDP-glucose, 3 μM C8 ceramide; room temperature 60 min; read-out: GCS enzyme inhibitory rate at 10 μM (%) (% of control).
T1 construct: made in house; host or cells: Expi293F cells (transient expression, pcDNA3.3-TOPO vector); microsome fraction used as enzyme source
T1 sequence (Q16739 1-394): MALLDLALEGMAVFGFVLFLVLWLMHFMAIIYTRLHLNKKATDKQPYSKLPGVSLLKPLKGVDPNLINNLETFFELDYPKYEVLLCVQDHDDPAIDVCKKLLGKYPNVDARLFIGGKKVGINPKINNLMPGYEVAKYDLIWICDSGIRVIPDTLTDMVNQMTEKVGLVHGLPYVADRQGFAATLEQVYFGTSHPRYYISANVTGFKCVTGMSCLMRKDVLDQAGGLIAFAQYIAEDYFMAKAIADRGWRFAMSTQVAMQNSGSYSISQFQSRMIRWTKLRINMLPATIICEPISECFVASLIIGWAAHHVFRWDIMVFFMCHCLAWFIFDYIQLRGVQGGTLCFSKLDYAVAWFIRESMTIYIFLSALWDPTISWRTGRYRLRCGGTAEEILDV
Format: biochemical
Experimental: Glucosylceramide Synthase (GCS) Assay
In enzyme assay, a microsome fraction obtained by transient expression by Expi293F™ cells (catalog number: A14527, Thermo Fisher Scientific) was used as a glucosylceramide synthase source. Liposomal C8 ceramide and UDP-glucose were used as substrates. […] After the enzymatic reaction, the analysis was performed with Rapidfire MS/MS (API-4000™, SCIEX), and C8 glucosylceramide was quantified to evaluate the inhibitory activity of the test compound against glucosylceramide synthase activity.
PcDNA3.3TOPO vector (catalog number: K830001, Thermo Fisher Scientific) into which the human GCS gene was inserted was introduced into Expi293F™ Cells (catalog number: A14527, Thermo Fisher Scientific) by using ExpiFectamine™ 293 Transfection Kit (catalog number: A14525, Thermo Fisher Scientific). The cultured cells were dissolved in D-PBS (catalog number: 048-29805, Fuji Film Wako Pure Chemical Industries, Ltd.) containing 1 mM PMSF, and the solution was allowed to stand on ice for 30 minutes, and then subjected to cell disruption (homogenized). The disruption solution was centrifuged at 10,000×g for 20 minutes at 4° C., and the obtained supernatant was centrifuged at 142,400×g for 60 minutes at 4° C. The obtained precipitate was resuspended in a D-PBS solution containing 1 mM PMSF, and homogenized again to prepare as a microsome fraction. Protein quantification was performed by the CBB method.
A 1 mM compound solution prepared by dissolving the test compound in DMSO was added to a 384-well plate by 100 nL so that the final concentration of the test compound was 10 μM. Next, a substrate solution consisting of 3.4 μM UDP-glucose and 6 μM C8 ceramide was added by 5 μL, followed by an enzyme solution consisting of a 25 μg/mL microsome fraction by 5 μL. C8 ceramide was prepared from liposomes composed of 15 mol % C8 ceramide and 85 mol % dioleoyl phosphatidylcholine (1,2-dioleoyl-sn-glycero-3-phosphocholine: DOPC). The enzymatic reaction was carried out in a solution consisting of 20 mM tris-hydrochloric acid buffer (pH 7.5), 0.01% Tween 20, 0.01% bovine serum albumin and 1 mM dithiothreitol at room temperature for 60 min. Then, a solution consisting of 75% isopropanol and 1% formic acid containing 0.25 μM N-Octadecanoyl-D35-psichosine (catalog number: 1914, Matreya) as an internal standard substance was added by 60 μL to stop the enzymatic reaction. 5 μL of the centrifugal supernatant of the obtained reaction product was analyzed by Rapidfire MS/MS (Agilent Technologies) using API-4000™ (SCIEX), and the C8 glucosylceramide was quantified to evaluate the inhibitory activity of the test compound against the glucosylceramide synthase activity. The inhibitory activity of the test compound was evaluated when the C8 glucosylceramide level in the enzyme-free solution was considered as 100% inhibitory and the enzyme activity of the DMSO group in the absence of the compound was considered as 0% inhibitory.

| inhibition at 10 µM | SMILES |
| --- | --- |
| 91% | CS(=O)(=O)c1ccc(N2Cc3c(ccnc3-c3ccccc3OCC(F)(F)F)C2=O)nc1 [Example 268, 2-[5-(methanesulfonyl)pyridin-2-yl]-4-[2-(2,2,2-trifluoroethoxy)phenyl]-2,3-dihydro-1H-pyrrolo[3,4-c]pyridin-1-one] |
| 94% | N#Cc1ccc(N2Cc3ccnc(-c4ccc(F)cc4OCC(F)(F)F)c3C2)nc1 [Example 156, 6-{4-[4-fluoro-2-(2,2,2-trifluoroethoxy)phenyl]-1,3-dihydro-2H-pyrrolo[3,4-c]pyridin-2-yl}pyridine-3-carbonitrile] |
| 89% | N#CC1(c2ccc(N3Cc4c(ccnc4-c4ccc(F)cc4OCC(F)(F)F)C3=O)cc2)CC1 [Example 244, 1-(4-{4-[4-fluoro-2-(2,2,2-trifluoroethoxy)phenyl]-1-oxo-1,3-dihydro-2H-pyrrolo[3,4-c]pyridin-2-yl}phenyl)cyclopropane-1-carbonitrile] |
| 99% | O=C1c2ccnc(-c3ccc(F)cc3OCC(F)(F)F)c2CN1c1ccc(C(O)C(F)F)cc1 (single isomer, unassigned) [Example 278, (R or S)-2-[4-(2,2-difluoro-1-hydroxyethyl)phenyl]-4-[4-fluoro-2-(2,2,2-trifluoroethoxy)phenyl]-2,3-dihydro-1H-pyrrolo[3,4-c]pyridin-1-one] |
| 79% | CC(C)(O)C(F)(F)c1ccc(N2Cc3c(ccnc3-c3ccc(F)cc3OCC(F)(F)F)C2=O)cn1 [Example 291, 2-[6-(1,1-difluoro-2-hydroxy-2-methylpropyl)pyridin-3-yl]-4-[4-fluoro-2-(2,2,2-trifluoroethoxy)phenyl]-2,3-dihydro-1H-pyrrolo[3,4-c]pyridin-1-one] |
| 73% | CN(C)C(=O)c1ccc(N2Cc3cnn(-c4ccccc4OCC(F)(F)F)c3C2)nc1 [Example 230, N,N-dimethyl-6-{1-[2-(2,2,2-trifluoroethoxy)phenyl]-4,6-dihydropyrrolo[3,4-c]pyrazol-5(1H)-yl}pyridine-3-carboxamide] |
| 94% | O=C1c2ccnc(-c3ccc(F)cc3OCC(F)(F)F)c2CN1c1cnc(OC(F)F)nc1 [Example 151, 2-[2-(difluoromethoxy)pyrimidin-5-yl]-4-[4-fluoro-2-(2,2,2-trifluoroethoxy)phenyl]-2,3-dihydro-1H-pyrrolo[3,4-c]pyridin-1-one] |
| 96% | O=C1c2ccnc(-c3ccc(F)cc3OCC(F)(F)F)c2CN1c1ccc(S(=O)(=O)C(F)F)cc1 [Example 139, 2-[4-(difluoromethanesulfonyl)phenyl]-4-[4-fluoro-2-(2,2,2-trifluoroethoxy)phenyl]-2,3-dihydro-1H-pyrrolo[3,4-c]pyridin-1-one] |
| 99% | O=C1c2ccnc(-c3ccc(F)cc3OCCOC(F)(F)F)c2CN1c1ccc(OC(F)F)nc1 [Example 174, 2-[6-(difluoromethoxy)pyridin-3-yl]-4-{4-fluoro-2-[2-(trifluoromethoxy)ethoxy]phenyl}-2,3-dihydro-1H-pyrrolo[3,4-c]pyridin-1-one] |
| 100% | COCc1cc2c(c(-c3ccccc3OCC(F)(F)F)n1)CN(c1ccc(C(C)(C)O)cc1)C2=O [Example 330, 2-[4-(2-hydroxypropan-2-yl)phenyl]-6-(methoxymethyl)-4-[2-(2,2,2-trifluoroethoxy)phenyl]-2,3-dihydro-1H-pyrrolo[3,4-c]pyridin-1-one] |
| 101% | CC(C)(O)c1ccc(N2Cc3c(cc(C4CCCOC4)nc3-c3ccccc3OCC(F)(F)F)C2=O)cc1 (racemic) [Example 387, rac-2-[4-(2-hydroxypropan-2-yl)phenyl]-6-(oxan-3-yl)-4-[2-(2,2,2-trifluoroethoxy)phenyl]-2,3-dihydro-1H-pyrrolo[3,4-c]pyridin-1-one] |
| 94% | CCC(=O)c1ccc(N2Cc3c(ccnc3-c3ccc(F)cc3OCC(F)(F)F)C2=O)cc1 [Example 189, 4-[4-fluoro-2-(2,2,2-trifluoroethoxy)phenyl]-2-(4-propanoylphenyl)-2,3-dihydro-1H-pyrrolo[3,4-c]pyridin-1-one] |
| 100% | N#Cc1ccc(N2Cc3c(ccnc3-c3ccccc3OCC(F)(F)F)C2=O)nc1 [Example 72, 6-{1-oxo-4-[2-(2,2,2-trifluoroethoxy)phenyl]-1,3-dihydro-2H-pyrrolo[3,4-c]pyridin-2-yl}pyridine-3-carbonitrile] |
| 83% | COC(=O)c1ccc(-c2nccc3c2CN(c2ccc(F)cc2)C3=O)c(OC(F)F)c1 [Example 34, methyl 3-(difluoromethoxy)-4-[2-(4-fluorophenyl)-1-oxo-2,3-dihydro-1H-pyrrolo[3,4-c]pyridin-4-yl]benzoate] |
| 98% | O=C1c2ccnc(-c3ccccc3OCC(F)(F)F)c2CN1c1ccc(C2(O)CCC2)nc1 [Example 203, 2-[6-(1-hydroxycyclobutyl)pyridin-3-yl]-4-[2-(2,2,2-trifluoroethoxy)phenyl]-2,3-dihydro-1H-pyrrolo[3,4-c]pyridin-1-one] |
| 89% | O=C1c2ccnc(-c3ccc(F)cc3OCC(F)(F)F)c2CN1c1ccc(C2(O)COC2)c(F)c1 [Example 220, 2-[3-fluoro-4-(3-hydroxyoxetan-3-yl)phenyl]-4-[4-fluoro-2-(2,2,2-trifluoroethoxy)phenyl]-2,3-dihydro-1H-pyrrolo[3,4-c]pyridin-1-one] |
| 70% | COc1cc(F)ccc1-c1nccc2c1CN(c1ccc(F)cc1)C2=O [Example 7, 4-(4-fluoro-2-methoxyphenyl)-2-(4-fluorophenyl)-2,3-dihydro-1H-pyrrolo[3,4-c]pyridin-1-one] |
| 99% | O=C1c2ccc(=O)n(-c3ccc(F)cc3OCC(F)(F)F)c2CN1c1ccc(OC(F)F)cn1 [Example 310, 6-[5-(difluoromethoxy)pyridin-2-yl]-1-[4-fluoro-2-(2,2,2-trifluoroethoxy)phenyl]-6,7-dihydro-1H-pyrrolo[3,4-b]pyridine-2,5-dione] |
| 100% | Fc1ccc(N2Cc3ccnc(-c4ccccc4OCC(F)(F)F)c3C2)cc1 [Example 168, 2-(4-fluorophenyl)-4-[2-(2,2,2-trifluoroethoxy)phenyl]-2,3-dihydro-1H-pyrrolo[3,4-c]pyridine] |
| 97% | CCS(=O)(=O)c1ccc(N2Cc3c(ccnc3-c3ccc(F)cc3OCC(F)(F)F)C2=O)cc1 [Example 110, 2-[4-(ethanesulfonyl)phenyl]-4-[4-fluoro-2-(2,2,2-trifluoroethoxy)phenyl]-2,3-dihydro-1H-pyrrolo[3,4-c]pyridin-1-one] |
| 95% | Fc1ccc(N2Cc3ccnc(-c4ccc(F)cc4OCC(F)(F)F)c3C2)nc1 [Example 169, 2-(5-fluoropyridin-2-yl)-4-[4-fluoro-2-(2,2,2-trifIuoroethoxy)phenyl]-2,3-dihydro-1H-pyrrolo[3,4-c]pyridine] |
| 100% | O=C1c2ccnc(-c3ccc(F)cc3OCC(F)(F)F)c2CN1c1ccc(C2(O)CCC2)cc1 [Example 163, 4-[4-fluoro-2-(2,2,2-trifluoroethoxy)phenyl]-2-[4-(1-hydroxycyclobutyl)phenyl]-2,3-dihydro-1H-pyrrolo[3,4-c]pyridin-1-one] |
| 94% | CC(C)(O)C(F)(F)c1ccc(N2Cc3c(ccnc3-c3ccncc3OCC(F)(F)F)C2=O)cc1 [Example 283, 2-[4-(1,1-difluoro-2-hydroxy-2-methylpropyl)phenyl]-4-[3-(2,2,2-trifluoroethoxy)pyridin-4-yl]-2,3-dihydro-1H-pyrrolo[3,4-c] pyridin-1-one] |
